# Test results from US20110045139A1, “FERMENTED SAUSAGE AND METHODS OF MAKING SAME” (priority 2009, published 2011).
# Where two headings read alike, the source gives them in different places.
# Experiments:
# E. coli O157:H7 [1] = assay: In vitro formation of isothiocyanates by myrosinase, viable counts; assay type: cell-based, Escherichia coli O157:H7; conditions: glucosinolate 2.5 mM plus myrosinase 0.2 U/tube, MHB with sausage ingredients
# E. coli O157:H7 [2] = conditions: pH 4.9; cited from earlier work
# Pediococcus pentosaceus = assay: microbe, parasite or virus in culture; assay type: cell-based; conditions: pH 5.5
# Staphylococcus carnosus = assay: microbe, parasite or virus in culture; assay type: cell-based; conditions: pH 5.5
# [3] = test system: E. coli O157:H7 (5-strain cocktail); assay: microbe, parasite or virus in culture; assay type: cell-based, Escherichia coli O157:H7; conditions: for MBC / Growth inhibition (p < 0.05): pH 5.5
# E. coli O157:H7 [4] = assay: Minimum inhibitory concentration at dry-cured sausage pH; assay type: cell-based, Escherichia coli O157:H7; conditions: pH 5.5
# [5] = test system: Escherichia coli, Staphylococcus aureus, Campylobacter jejuni, Pseudomonas aeruginosa, Salmonella Enteritidis, Listeria monocytogenes, Shigella boydii and …; conditions: cited from earlier work
compound,measurement,setting,value
C=CCC(=NOS(=O)(=O)O)S[C@@H]1O[C@H](CO)[C@@H](O)[C@H](O)[C@H]1O (stereo in doubt) [sinigrin],time after which E. coli was not detectable,E. coli O157:H7 [1],2 days
"C=CCN=C=S [AIT, allyl isothiocyanate]",minimum inhibitory concentration,E. coli O157:H7 [2],~250 µM
same,MBC,"Pediococcus pentosaceus; Pediococcus pentosaceus, 18 h",20800 µM
same,Growth inhibition (p < 0.05),Pediococcus pentosaceus,10.40 mM
same,MBC,"Staphylococcus carnosus; Staphylococcus carnosus, 18 h",1040 µM
same,Growth inhibition (p < 0.05),Staphylococcus carnosus,0.26 mM
same,MBC,"[3]; Escherichia coli, 18 h",1040 µM
same,Growth inhibition (p < 0.05),[3],0.26 mM
O=S(=O)(O)O/N=C(/Cc1ccc(O)cc1)S[C@@H]1O[C@H](CO)[C@@H](O)[C@H](O)[C@H]1O [sinalbin],time after which E. coli was not detectable,E. coli O157:H7 [1],3 days
"OCc1ccc(O)cc1 [ρ-HBA, ρ-hydroxybenzyl alcohol]",inhibitory activity against E. coli O157:H7,[3],very weak
same,Growth inhibition (p < 0.05),[3],20.14 mM
"Oc1ccc(CN=C=S)cc1 [ρ-HBIT, ρ-hydroxybenzyl isothiocyanate]",minimum inhibitory concentration,E. coli O157:H7 [4],~600 µM
same,bactericidal concentration,[5],0.35 to 2.13 mM
same,Growth inhibition (p < 0.05),Pediococcus pentosaceus,1.48 mM
same,MBC,Pediococcus pentosaceus,5920 µM
same,Growth inhibition (p < 0.05),Staphylococcus carnosus,0.3 mM
same,MBC,Staphylococcus carnosus,590 µM
same,Growth inhibition (p < 0.05),[3],0.59 mM
same,MBC,[3],1480 µM
